Eleven molecules from patent US11958842B2, “Substituted phenazines and methods of treating cancer and bacterial diseases” (Adjutec Pharma AS, priority 2016, dated 2024) can be followed below.

Data set [1] concerns normal rat kidney epithelial (NRK) cells. As to the kind of experiment: Cytotoxicity, WST-1 and nuclear morphology (Example 73). The data set is classed as cell-based. As to the method: (§1) All cell culturing media and serum were from Sigma-Aldrich (St. Louis, Mo., USA). Product Nos. are given in parentheses. The human acute myeloid leukemia cell line MOLM-13 was cultured in RPMI medium (R5886) enriched with […] (F7524) and 0.2 mM L-glutamine (G7513). The normal rat kidney epithelial (NRK) and the rat cardiomyoblast (H9c2) cells were cultured in DMEM medium (D6429) enriched with 10% fetal bovine serum (F7524). All cell lines were additionally supplemented with 100 IU/mL penicillin and […] (P0781). The cells were cultured in a humidified atmosphere either under 2% or 20% O2 at 37° C.
(§2) All analogues were dissolved in DMSO (D5879, Sigma-Aldrich) at concentrations between 2.5 and 20 mM before testing. For cytotoxic testing, the MOLM-13 cells were seeded as 20,000 cells/well, while NRK and H9c2 cells were seeded as 5,000 cells/well in 96-well Microplates (#167008, Thermo Scientific™ Nunc™ MicroWell™) with 100 μL medium/well. The cells were exposed to various concentrations of iodinin or its analogues for 24 hrs before the cell proliferation reagent WST-1 was used to assess the viability, in accordance with the manufacturer's instructions (11644807001, Roche Diagnostics, Sigma-Aldrich). The cells were next fixed in 2% buffered formaldehyde (pH 7.4) with the DNA-specific dye Hoechst 33342 (Polysciences Inc.) and assessed for cell death by UV-microscopy based on nuclear morphology. The highest concentration of analogue corresponded to 1% of DMSO, which alone gave less than 7% cell death as judged by nuclear morphology.
(§3) EC50 values were determined by analyses of WST-1 signal results as well as microscopic evaluation of cell death by four-parameter regression analyses using the SigmaPlot software (Systat Software inc. San Jose, Calif.):
(§4) [formula] where Y is the response (WST-1 signal or percent apoptosis), min and max are minimum and maximum response, X is concentration of analogue, EC50 equals the point of inflection, i.e. the point that gives half of maximum response, and h is the Hill's slope of the curve. The two methods gave consistent response curves for each analogue. In the case of Tirapazamine, where its colour interfered with the WST-1 signal, only microscopic evaluation of Hoechst stained cells was used in order to calculate its EC50 values.

Data set [2] concerns human acute myeloid leukemia cell line MOLM-13. The description is as above. The data set is classed as cell-based. As to the method: as §1, §2, §3, §4
Data set [3] concerns rat cardiomyoblast (H9c2) cells. The data set is described as above. The format is cell-based. As to conditions: H9c2, 19% O2, 24 hours of incubation, read-out: EC50 (μM) H9c2 19% O2. As to the method:
as §1, §2, §3, §4

The nature of data set [4]: Parallel artificial membrane permeability assay (PAMPA). As to conditions: for LogPeff: PAMPA, 50 μM in PBS, room temperature, five hours; for Permeability: PAMPA class by ranges of Bennion et al. As to the method:
The Corning Gentest™ pre-Coated parallel artificial membrane permeability assay PAMPA Plate System was from Cording Discovery Labware (Bedford, USA). The compounds were tested in room temperature at 50 μM using PBS as buffer. A total of 300 μl of the compound solution was added to each well of the donor plate, and 200 μl of PBS was added to the receiver filter plate. After incubation for five hours, 50 μl of the donor or acceptor well were injected into a reversed phase HPLC column (Kromasil 100-5 C18 150-4.6 mm, Akzo Nobel, Sweden) connected to a Merck-Hitachi LaChrome HPLC-system (VWR, WestChester, USA) with a L-7455 diode array detector. Mobile phase A was 0.05% aqueous TFA, and mobile phase B was acetonitrile. The flow rate was 1.6 ml/min and compounds eluted between 1 and 4.5 minutes was eluted during a 6.5 min gradient from 90:10% mobile phase A:B to 0:100% mobile phase A:B. The ratio of the compound concentrations in the donor and acceptor compartment was calculated after integration of the peaks at 285 nm. Peff was calculated as described in [Bennion B J, Be N A, McNerney M W, Lao V, Carlson E M, Valdez C A, et al. Predicting a Drug's Membrane Permeability: A Computational Model Validated With in Vitro Permeability Assay Data. The journal of physical chemistry B. 2017; 121(20):5228-37.]. Membrane permeability were classified by the range defined by Bennion et al., allowing for us to divide the compounds into four groups, compounds with high permeability (LogPeff>−5.33), intermediate permeability (LogPeff>−5.66 and <−5.33), low permeability (LogPeff>−6.14 and <−5.66) impermeable (LogPeff<−6.14).

The test system of the next data set is Molm13 cells. The experiment in a line: Anti-AML activity, WST-1 viability (Example 72). The format is cell-based. As to conditions: Homo sapiens, Molm 13 cells, WST-1. As to the method:
Dry powder of analogs were dissolved in DMSO. IPC-18 rat AML cells (Lacaze, N. et al. Leuk. Res. 1983, 7, 145.) were cultured in DMEM medium (Sigma-Aldrich, St. Louis, Mo., USA) supplemented with 10% horse serum (Invitrogen, Carlsbad, Calif., USA), and antibiotics (50 U/mL of penicillin and 0.05 mg/mL streptomycin). Molm13 (Matsuo, Y. et al. Leukemia 1997, 11, 1469.) cells were cultured in RPMI supplemented with antibiotics (50 U/mL of penicillin and 0.05 mg/mL streptomycin) and 10% fetal bovine serum (FBS, Invitrogen, Carlsbad, Calif.) and kept in exponential growth before the experiments. Dilution series of iodinin analogs were added to medium and cell suspension added to reach a final cell concentration of 150 000 cells/ml in 0.1 mL in a 96 well tissue culture plate. […] The cells were incubated with the iodinin analogs for 22 h before WST-1 was added according to the manufacturers protocol, and the cells incubated further in 2 h. Mitochondrial conversion of WST-1 to its colored metabolite was measured by a plate reader at 450 nm, with 620 nm as the reference wavelength. The cells were next fixed by adding 4% buffered formaldehyde (PBS, pH 7.4, supplemented with 0.01 mg/mL Hoechst 33342 for nuclear visualization) to the cell suspension at 1:1 (v/v) ratio (final concentration of formaldehyde:[…]). The cells' nuclear and surface morphology were examined microscopically and results compared with the WST-1 viability assay. The results given in Table I are based on WST-1 data.

A further data set relates to hepG2. The experiment in a line: Cytotoxicity (Example 73, Table 2). The data set is classed as cell-based. As to conditions: Homo sapiens, read-out: EC50 (μM) hepG2.
Setting [5] is: Rattus norvegicus, 2% O2, 24 hours of incubation, read-out: EC50 (μM) NRK 2% O2.
[6] abbreviates: Rattus norvegicus, 19% O2, 24 hours of incubation, read-out: EC50 (μM) NRK 19% O2.
Setting [7] is: Homo sapiens, MOLM-13, 2% O2, 24 hours of incubation, read-out: EC50 (μM) MOLM-13 2% O2.
[8] abbreviates: Homo sapiens, MOLM-13, 19% O2, 24 hours of incubation, read-out: EC50 (μM) MOLM-13 19% O2.
Setting [9] is: 2% O2, 24 h of incubation, read-out: Molm 13 IC50 2% O2.
[10] abbreviates: 20% O2, 24 h of incubation, read-out: Molm 13 IC50 20% O2.
Where [11] appears, read: Rattus norvegicus, 24 h, read-out: EC50 (μM) NRK 2% O2, NRK, 2% O2, 24 hours of incubation.
[12] abbreviates: Rattus norvegicus, 24 h, read-out: EC50 (μM) NRK 19% O2, NRK, 19% O2, 24 hours of incubation.
[13] abbreviates: MOLM-13, 2% O2, 24 hours of incubation, read-out: EC50 (μM) MOLM-13 2% O2.
Setting [14] is: MOLM-13, 19% O2, 24 hours of incubation, read-out: EC50 (μM) MOLM-13 19% O2.
Where [15] appears, read: read-out: EC50 (μM) NRK 19% O2, 19% O2, 24 hours of incubation.

Read-outs that look alike come from different tables or passages of the source. Marks after values point to notes of the source that are not given here.

With `CCOC(=O)COc1cccc2c1[n+]([O-])c1cccc(O)c1[n+]2[O-]` [Example 5c, 1-(2-(ethoxy)-2-oxoethoxy)-6-hydroxyphenazine 5,10-dioxide], the EC50 in data set [1] (setting [5]) was 18 ± 1.5 µM; in data set [1] (setting [6]), 11 ± 1.6 µM; in data set [2] (setting [7]) it was 0.49 ± 0.12 µM; in data set [2] (setting [8]), 0.57 ± 0.06 µM; in data set [3] (Rattus norvegicus), 15 ± 0.9 µM. In data set [4], the LogPeff was −4.70. The figures for the IC50 with Molm13 cells (setting [9]) and in the data set on Molm13 cells (setting [10]) were 0.65 µM and 0.85 µM, respectively.

For `CCOC(=O)COc1cccc2c1[n+]([O-])c1cc(Cl)c(Cl)cc1[n+]2[O-]` [Example 6c, 7,8-dichloro-1-(2-ethoxy-2-oxoethoxy)phenazine 5,10-dioxide], the EC50 in the data set on hepG2 (hepG2, 24 hours of incubation) amounted to 12 µM; in data set [1] (setting [5]), 4.7 ± 0.09 µM; in data set [1] (setting [6]), 3.1 ± 0.02 µM; in data set [2] (setting [7]), 0.38 ± 0.04 µM; in data set [2] (setting [8]), 0.41 ± 0.05 µM; in data set [3] (Rattus norvegicus) it was 1.3 ± 0.2 µM. Further, the Permeability entry in data set [4] is “Intermediate/high”. In addition, the LogPeff in data set [4] is given as −5.42.

Regarding `O=C(O)COc1cccc2c1[n+]([O-])c1cccc(O)c1[n+]2[O-]` [Example 7, 1-(carboxymethoxy)-6-hydroxyphenazine 5,10-dioxide], the figures for the EC50 in data set [2] (setting [7]) and in data set [2] (setting [8]) were 61 ± 4 µM and 54 ± 7 µM, respectively. In addition, the LogPeff in data set [4] is −7.53.

Regarding `CN1CCN(C(=O)Oc2cccc3c2[n+]([O-])c2cccc(O)c2[n+]3[O-])CC1` [Example 8a, 1-hydroxy-6-((4-methylpiperazine-1-carbonyl)oxy)phenazine 5,10-dioxide], the EC50 worked out at 30 µM with hepG2 (HepG2, 24 h); 59 ± 1.1 µM in data set [1] (setting [11]); 53 ± 2 µM in data set [1] (setting [12]); 1.4 ± 0.06 µM in data set [2] (setting [13]); 1.5 ± 0.16 µM in data set [2] (setting [14]); 100 ± 13 µM in data set [3].

Turning to `Cc1cc2c(cc1C)[n+]([O-])c1c(OC(=O)N3CCN(C)CC3)cccc1[n+]2[O-]` [Example 8d, 7,8-dimethyl-1-((4-methylpiperazine-1-carbonyl)oxy)phenazine 5,10-dioxide], the EC50 with hepG2 (HepG2, 24 h) was 105 µM; in data set [1] (setting [11]), 13 ± 0.7 µM; in data set [1] (setting [12]), 11 ± 1.5 µM; in data set [2] (setting [13]) it was 0.54 ± 0.06 µM; in data set [2] (setting [14]), 0.63 ± 0.05 µM; in data set [3] it was 9.4 ± 0.55 µM.

As for `CCCCC(=O)Oc1cccc2c1[n+]([O-])c1cccc(OC(=O)CCCC)c1[n+]2[O-]` [Example 16b, 1,6-bis(pentanoyloxy)phenazine 5,10-dioxide], the figures for the EC50 in data set [2] (setting [7]), in data set [2] (setting [8]) and in data set [3] (Rattus norvegicus) were 22 ± 2.8 µM, 36 ± 0.1 µM and > 200 µM, respectively. Besides, in data set [4], the LogPeff is −8.66. Further, the IC50 with Molm13 cells (setting [10]) was ~40 µM.

In the case of `CC(C)(C)C(=O)Oc1cccc2c1[n+]([O-])c1cccc(OC(=O)C(C)(C)C)c1[n+]2[O-]` [Example 16d, 1,6-bis(pivaloyloxy)phenazine 5,10-dioxide], the concentration for a half-maximal effect (EC50) in data set [2] (setting [7]) was 8.9 ± 1.71 µM; in data set [2] (setting [8]) it was 11 ± 0.7 µM; in data set [3] (Rattus norvegicus) it was > 50 µM. In addition, in data set [4], the LogPeff is on record as −5.86*. The IC50 in the data set on Molm13 cells (setting [9]) was 5.59 µM; with Molm13 cells (setting [10]) it was 4.05 µM.

`CCN(CC)C(=O)COc1cccc2c1[n+]([O-])c1cc(C)c(C)cc1[n+]2[O-]` [Example 50, 1-(2-(diethylamino)-2-oxoethoxy)-7,8-dimethylphenazine 5,10-dioxide]: the EC50 in data set [1] (setting [5]) was 52 ± 1.2 µM; in data set [1] (setting [6]) it was 21 ± 0.3 µM; in data set [2] (setting [7]) it was 3.4 ± 0.78 µM; in data set [2] (setting [8]), 1.8 ± 0.24 µM; in data set [3] (Rattus norvegicus), 41 ± 5.7 µM. In data set [4], the Permeability entry is recorded as “Intermediate/high”. Further, the LogPeff in data set [4] was −5.42.

`Cc1cc2c(cc1C)[n+]([O-])c1c(OC(=O)N3CCCC3)cccc1[n+]2[O-]` [Example 52, 7,8-dimethyl-1-((pyrrolidine-1-carbonyl)oxy)phenazine 5,10-dioxide]: the EC50 in data set [1] (setting [11]) came to 8.9 µM; in data set [1] (setting [12]), 6.6 ± 0.04 µM; in data set [2] (setting [13]), 0.78 ± 0.11 µM; in data set [2] (setting [14]), 1.5 ± 0.02 µM; in data set [3], 8.7 ± 1.2 µM. The LogPeff in data set [4] is given as −5.32.

With `CN1CCN(C(=O)Oc2cccc3c2[n+]([O-])c2cc(Br)c(Br)cc2[n+]3[O-])CC1` [Example 59, 7,8-dibromo-1-((4-methylpiperazine-1-carbonyl)oxy)phenazine 5,10-dioxide], the EC50 in the data set with hepG2 (HepG2, 24 h) stood at 40 µM; in data set [1] (read-out: EC50 (μM) NRK 2% O2, 2% O2, 24 hours of incubation) it was 7.6 ± 0.6 µM; in data set [1] (setting [15]) it was 6.2 ± 0.02 µM; in data set [2] (setting [13]), 0.23 ± 0.03 µM; in data set [2] (setting [14]), 0.41 ± 0.04 µM; in data set [3], 2.2 ± 0.53 µM.

On to `CN1CCN(C(=O)Oc2cccc3c2[n+]([O-])c2cc4ccccc4cc2[n+]3[O-])CC1` [Example 71, 1-((4-methylpiperazine-1-carbonyl)oxy)benzo[b]phenazine 5,12-dioxide], for which the EC50 in data set [1] (setting [11]) was determined as 7.5 ± 0.38 µM; in data set [1] (setting [15]) it was 2 ± 0.06 µM; in data set [2] (setting [13]), 1.8 ± 0.1 µM; in data set [2] (setting [14]), 2.8 ± 0.18 µM; in data set [3] it was 2.3 ± 0.05 µM. The Permeability entry in data set [4] was “Intermediate/high”. For the same molecule, the LogPeff in data set [4] is recorded as −5.43.
